Assay results reported in patent publication US20140088306A1, “RADIOACTIVE FLUORINE-LABELED QUINOXALINE COMPOUND” (Nihon Medi-Physics Co., Ltd., priority 2012, published 2014).
Where two headings read alike, the source gives them in different places.

Biological target: T1, Aβ1-42 aggregates (Homo sapiens, UniProt P05067)
T1 construct: Aβ1-42 aggregates (Peptide Institute, Inc, Osaka) were dissolved in 0.1 mol/L phosphate-buffered saline; purchased Peptide Institute, Inc., Osaka
Experiment: [^125I]IMPY binding inhibition experiment (Example 5)
Conditions: for binding property to Aβ1-42 aggregates: [^125I]IMPY binding inhibition, result in words
Protocol: Aβ1-42 aggregates (Peptide Institute, Inc, Osaka) were dissolved in 0.1 mol/L phosphate-buffered saline (hereinafter referred to as PBS) to 0.25 mg/mL and incubated at 37° C. for 42 hours to prepare an Aβ1-42 aggregate PBS solution. This was further diluted 1:100 with PBS to 2.5 μg/mL and used for an assay.
The mixture was filtered through Whatman (R) GF/B filter, and a γ counter was used to measure the radioactivity of the filter. The measured radioactivity values were used to prepare an inhibition curve to calculate IC50. In addition, the following mathematical expression (1):
was used to calculate an inhibition constant (Ki).

[1] = inhibition of [^125I]IMPY binding to Aβ1-42 aggregates

T1 sequence (P05067 672-713 limits assumed): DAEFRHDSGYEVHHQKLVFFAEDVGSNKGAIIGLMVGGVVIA

Structure (SMILES) | binding property to Aβ1-42 aggregates | Ki [1] [nM] | Ki [nM]
CNc1ccc(-c2cnc3ccc(OCCF)cc3n2)cc1 [Compound E2, 4-(7-(2-Fluoroethoxy)quinoxalin-2-yl)-N-methylaniline] | not each confirmed to have a sufficient binding property | 758 | 
Nc1ccc(-c2cnc3ccc(OCCF)cc3n2)cc1 [Compound E1, 4-(7-(2-Fluoroethoxy)quinoxalin-2-yl)aniline] | not each confirmed to have a sufficient binding property | 1180 | 
CN(C)c1ccc(-c2cnc3ccc(OCCF)cc3n2)cc1 [Compound E3, 4-(7-(2-Fluoroethoxy)quinoxalin-2-yl)-N,N-dimethylaniline] | sufficiently high binding property | 111 | 
CN(C)c1ccc(-c2cnc3cc(OCCF)ccc3n2)cc1 [Compound D3, 4-(6-(2-Fluoroethoxy)quinoxalin-2-yl)-N,N-dimethylaniline] | sufficiently high binding property |  | 0.947
